{"source": "patent US6649814B2", "about": "“Cytochrome P450 monooxygenases” (Syngenta Participations AG, priority 1997, dated 2003)", "molecules": {"B1": {"name": "P450TYR: cytochrome P450 of Sorghum bicolor that converts tyrosine to p-hydroxyphenylacetaldehyd oxime (protein, UniProt Q43135 2-558, looked up)", "Tyrosine N-monooxygenase": "ATMEVEAAAATVLAAPLLSSSAILKLLLFVVTLSYLARALRRPRKSTTKCSSTTCASPPAGVGNPPLPPGPVPWPVVGNLPEMLLNKPAFRWIHQMMREMGTDIACVKLGGVHVVSITCPEIAREVLRKQDANFISRPLTFASETFSGGYRNAVLSPYGDQWKKMRRVLTSEIICPSRHAWLHDKRTDEADNLTRYVYNLATKAATGDVAVDVRHVARHYCGNVIRRLMFNRRYFGEPQADGGPGPMEVLHMDAVFTSLGLLYAFCVSDYLPWLRGLDLDGHEKIVKEANVAVNRLHDTVIDDRWRQWKSGERQEMEDFLDVLITLKDAQGNPLLTIEEVKAQSQDITFAAVDNPSNAVEWALAEMVNNPEVMAKAMEELDRVVGRERLVQESDIPKLNYVKACIREAFRLHPVAPFNVPHVALADTTIAGYRVPKGSHVILSRTGLGRNPRVWDEPLRFYPDRHLATAASDVALTENDLRFISFSTGRRGCIAASLGTAMSVMLFGRLLQGFTWSKPAGVEAVDLSESKSDTFMATPLVLHAEPRLPAHLYPSISI"}}, "key": {"cytochrome P450OX [1]": {"target": "T1, cytochrome P450OX (Sorghum bicolor, UniProt O48958)", "T1 sequence (O48958 2-531)": "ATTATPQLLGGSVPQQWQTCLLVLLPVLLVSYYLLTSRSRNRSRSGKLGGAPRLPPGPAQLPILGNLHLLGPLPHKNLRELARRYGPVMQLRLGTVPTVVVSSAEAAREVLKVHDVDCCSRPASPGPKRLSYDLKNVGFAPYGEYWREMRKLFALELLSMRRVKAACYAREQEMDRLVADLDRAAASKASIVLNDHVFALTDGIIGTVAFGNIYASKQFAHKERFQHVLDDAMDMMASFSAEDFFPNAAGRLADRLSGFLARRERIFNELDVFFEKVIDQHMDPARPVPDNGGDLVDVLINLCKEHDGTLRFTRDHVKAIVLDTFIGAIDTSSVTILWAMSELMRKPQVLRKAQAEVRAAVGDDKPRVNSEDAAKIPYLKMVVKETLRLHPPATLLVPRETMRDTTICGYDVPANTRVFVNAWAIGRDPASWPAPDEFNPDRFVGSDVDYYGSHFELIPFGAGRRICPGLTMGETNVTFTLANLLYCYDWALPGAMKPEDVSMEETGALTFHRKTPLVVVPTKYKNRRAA", "test": "reconstitution of cytochrome P450OX activity in lipid micelles", "type": "biochemical", "parameters": "from tissue; host or cells: microsomes of etiolated Sorghum bicolor seedlings", "conditions": "10 mM, in place of NADPH", "excerpt": "(§1) Reconstitution of the enzyme activity of a microsomal cytochrome P450 is accomplished by inserting the cytochrome P450 enzyme and the corresponding NADPH cytochrome P450 oxidoreductase into lipid micelles. A mixture of lipids can be used but in the case of cytochrome P450OX, dilauroylphosphatidylcholine (DLPC) provides the best enzymatic activity. The number of correctly formed complexes of cytochrome P450OX and NADPH cytochrome P450 oxidoreductase are a rate limiting factor. Excess amounts of the oxidoreductase and concentrated enzyme solutions are utilized to ensure a sufficient number of active complexes.\n(§2) A functionally reconstituted enzyme is obtained using the following components: […]\n(§3) The complete reaction mixtures contain: 3 μl of isolated, recombinant P450TYR (6 pmol, heterologously expressed in E. coli and isolated as in Halkier et al, Arch. Biochem. Biophys. 322: 369-377, 1995), 10 μl of isolated and dialyzed P450OX (approximately 0.4 pmol), 5 μl of NADPH-P450 oxidoreductase (0.075 U), 1 μl of partially purified UDPG glucosyl transferase from Sorghum, 5 μl of DLPC (10 mg/ml in 50 mM Kpi (pH7)), 0.25 μl of [U-^14C]-tyrosine ([…], 443 mCi/mmol, Amersham), 3 μl of UDPG (33 mg/ml in 50 mM Kpi (pH7)), and 3 μl of castanospermin (2 mM in 50 mM Kpi (pH7)). […] The first set of reaction mixtures is analyzed using the ethyl acetate/toluene solvent as in example 4.5. […]"}, "[2]": {"system": "glucosidase activity present in the UDPG glucosyltransferase extract", "test": "inhibition of glucosidase activity in the in vitro dhurrin reconstitution", "type": "biochemical, Sorghum", "conditions": "3 μl of 2 mM in 30 μl reaction mixture", "description": "as §3, with “4.5. The second set of reaction mixtures is analyzed using a solvent system consisting of ethyl acetate/acetone/dichloromethane/methanol/water (20/15/6/5/4, v/v/v/v/v) in order to achieve separation of the hydrophilic product dhurrin from tyrosine and from the hydrophobic intermediates.” for “4.5.”\nThe combined use of isolated P450TYR and P450OX in reconstitution experiments with radiolabeled tyrosine as substrate results in the production of p-hydroxyphenylacetonitrile and p-hydroxybenzaldehyde. […] Due to the lability of p-hydroxymandelonitrile its conversion to dhurrin is experimentally detected as a disappearance of p-hydroxybenzaldehyde. […]"}, "microsomal system": {"system": "microsomal system", "conditions": "the substance is the substrate, cited from earlier work; for Km: read-out: Km for p-hydroxymandelonitrile production"}, "P450OX": {"target": "T2, P450OX (Sorghum bicolor, UniProt O48958)", "T2 construct": "from tissue; host or cells: microsomes of etiolated Sorghum bicolor seedlings", "T2 sequence (O48958 1-531)": "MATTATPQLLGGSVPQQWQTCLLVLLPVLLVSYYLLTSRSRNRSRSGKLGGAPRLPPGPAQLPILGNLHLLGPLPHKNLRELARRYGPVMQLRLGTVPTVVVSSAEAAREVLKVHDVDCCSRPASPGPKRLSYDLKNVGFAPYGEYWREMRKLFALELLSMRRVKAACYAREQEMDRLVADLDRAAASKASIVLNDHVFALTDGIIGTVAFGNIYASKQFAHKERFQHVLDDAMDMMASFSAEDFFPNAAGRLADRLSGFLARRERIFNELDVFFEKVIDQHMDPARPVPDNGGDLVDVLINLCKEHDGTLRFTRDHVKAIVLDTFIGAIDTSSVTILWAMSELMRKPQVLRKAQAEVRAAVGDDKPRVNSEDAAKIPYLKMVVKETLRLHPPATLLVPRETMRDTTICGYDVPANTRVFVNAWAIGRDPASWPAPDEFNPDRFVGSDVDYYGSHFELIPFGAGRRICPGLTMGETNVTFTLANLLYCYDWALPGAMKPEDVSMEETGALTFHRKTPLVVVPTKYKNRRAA", "test": "substrate binding spectra of isolated P450OX", "conditions": "for substrate binding spectrum: upon substrate addition", "description": "The identification of P450OX as a multifunctional enzyme converting p-hydroxyphenylacetaldoxime to p-hydroxymandelonitrile with p-hydroxyphenylacetonitrile as an intermediate stimulated us to investigate the substrate binding ability of P450OX. […] The amplitude increased in size upon incubation and reached a stable maximum after approximately 45 min.\nThe isolated P450OX produces a reverse Type I substrate binding spectrum upon incubation with p-hydroxyphenylacetaldoxime. The extinction coefficient E420-390 corresponding to a complete transition from one spin state to the other is 130 mM^−1 cm^−1. In the substrate binding spectra obtained, the maximal amplitudes are approximately twice as large as theoretically calculated even when assuming a complete shift from a high spin to a low spin state. […] Alternatively, the P420 form of P450OX is able to bind the oxime and thus contributes to the size of the substrate binding spectrum formed. The latter possibility could explain why maximal amplitudes are only obtained after prolonged incubation."}, "cytochrome P450OX [3]": {"target": "T1, cytochrome P450OX", "test": "reconstitution of cytochrome P450OX activity in lipid micelles", "type": "biochemical", "parameters": "10 μl of the cytochrome P450OX (approximately 0.4 pmol) solution; from tissue; host or cells: microsomes of etiolated Sorghum bicolor seedlings", "excerpt": "as §1, §2, §3"}, "P450TYR (CYP79)": {"target": "T3, P450TYR (CYP79) (Sorghum bicolor, UniProt Q43135)", "T3 sequence (Q43135 1-558)": "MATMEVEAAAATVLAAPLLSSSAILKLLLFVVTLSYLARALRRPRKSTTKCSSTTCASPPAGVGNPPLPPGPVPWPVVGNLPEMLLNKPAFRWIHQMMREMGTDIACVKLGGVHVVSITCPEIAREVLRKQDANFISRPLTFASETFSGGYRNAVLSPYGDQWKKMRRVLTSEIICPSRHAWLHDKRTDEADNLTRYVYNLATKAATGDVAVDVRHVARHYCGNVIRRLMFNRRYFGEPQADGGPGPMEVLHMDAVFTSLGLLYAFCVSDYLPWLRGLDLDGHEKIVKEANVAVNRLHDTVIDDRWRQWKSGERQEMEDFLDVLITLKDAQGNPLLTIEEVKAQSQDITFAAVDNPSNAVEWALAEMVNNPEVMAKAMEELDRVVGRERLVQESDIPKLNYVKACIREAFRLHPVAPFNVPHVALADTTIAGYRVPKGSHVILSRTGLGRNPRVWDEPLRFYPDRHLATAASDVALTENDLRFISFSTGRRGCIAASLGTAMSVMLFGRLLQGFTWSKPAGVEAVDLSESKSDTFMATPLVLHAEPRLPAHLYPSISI", "conditions": "upon in vitro reconstitution; cited from earlier work"}}}
{"molecule": "O=S([O-])S(=O)[O-].[Na+].[Na+]", "note": "[Sodium dithionite, reference compound]", "values": [{"measurement": "support of metabolism of p-hydroxyphenylacetaldoxime by P450OX", "setting": "cytochrome P450OX [1]", "result": "does not support metabolism"}]}
{"molecule": "O[C@H]1[C@H](O)[C@@H](O)CN2CC[C@H](O)[C@H]12", "note": "[castanospermine]", "values": [{"measurement": "inhibition of glucosidase activity", "setting": "[2]", "result": "efficiently inhibited"}]}
{"molecule": "ON=CCc1ccc(O)cc1", "note": "[p-hydroxyphenylacetaldoxime]", "values": [{"measurement": "Km", "setting": "microsomal system", "result": 50, "unit": "µM"}, {"measurement": "Vmax for p-hydroxymandelonitrile production", "setting": "microsomal system", "result": 400, "unit": "nmoles mg protein^−1 h^−1"}, {"measurement": "incubation time until the amplitude of the binding spectrum reached a stable maximum", "setting": "P450OX", "result": "approximately 45 min"}, {"measurement": "substrate binding spectrum", "setting": "P450OX", "result": "reverse type I spectrum"}, {"measurement": "metabolism of the oxime as substrate of P450OX", "setting": "cytochrome P450OX [3]", "result": "fully metabolized"}]}
{"molecule": "N#CCc1ccc(O)cc1", "note": "[p-hydroxyphenylacetonitrile]", "values": [{"measurement": "Km", "setting": "microsomal system", "result": 100, "unit": "µM"}, {"measurement": "Vmax for p-hydroxymandelonitrile production", "setting": "microsomal system", "result": 50, "unit": "nmoles mg protein^−1 h^−1"}, {"measurement": "substrate binding spectrum", "setting": "P450OX", "result": "No substrate binding spectrum was obtained"}]}
{"molecule": "ON=CCc1ccccc1", "note": "[phenylacetaldoxime]", "values": [{"measurement": "metabolism of the oxime as substrate of P450OX", "setting": "cytochrome P450OX [3]", "result": "can metabolize"}]}
{"molecule": "N[C@@H](Cc1ccc(O)cc1)C(=O)O", "note": "[tyrosine]", "values": [{"measurement": "Km", "setting": "microsomal system", "result": 30, "unit": "µM"}, {"measurement": "Vmax for p-hydroxymandelonitrile production", "setting": "microsomal system", "result": 145, "unit": "nmoles mg protein^−1 h^−1"}]}
{"molecule": "B1", "values": [{"measurement": "turn-over number", "setting": "P450TYR (CYP79)", "result": 230, "unit": "min⁻¹"}]}
